This note sets out measurements from patent US20260130933A1, “PHARMACEUTICAL COMPOSITION FOR PREVENTION OR TREATMENT OF NEPHROPATHY AND/OR DIABETES MELLITUS, COMPRISING ENAVOGLIFLOZIN” (DAEWOONG PHARMACEUTICAL CO., LTD., priority 2022, published 2026).

As a reminder, the Tmax is the time at which the peak concentration occurs.

Structures are written as SMILES.

A short description of series [1]: Example 6: phase 1 trial, 0.5 mg enavogliflozin in type 2 diabetes patients grouped by eGFR: urinary glucose excretion (UGE) and eGFR. It is filed as in vivo, human. As to the method: The subjects were divided into the following four groups according to eGFR values, and urinary glucose excretion (UGE) and eGFR were estimated according to the administration of 0.5 mg of enavogliflozin as the test drug (stages 1 and 3: repeated administration (1 week), stages 2 and 4: single administration).

Series [2] is described as follows: Phase 2 clinical trial, blood glucose lowering vs placebo. It is filed as in vivo, human. Particulars: 0.1 mg, 0.3 mg and 0.5 mg groups.
The next series is described as follows: Pharmacokinetics (Tmax). Type of series: in vivo. Particulars: blood, oral.
A short description of series [3]: Dissolution test method 2 of the Korean Pharmacopoeia (paddle method). It is filed as physicochemical. Particulars: average particle size greater than 15 μm. As for the experimental part: The dissolution rate of the active ingredient in the pharmaceutical composition affects the maximum blood concentration (Cmax) and the blood concentration-area under the blood concentration-time curve (AUC) when administering the drug, that is to say, in order to achieve appropriate Cmax and AUC, it is important to adjust the dissolution rate of the pharmaceutical composition. […] The above dissolution rate was measured under the condition of the dissolved solution 1.2 in accordance of the dissolution test method 2 of the Korean Pharmacopoeia (paddle method). For specific conditions, refer to the following experimental examples.

With `OC[C@H]1O[C@@H](c2cc(Cc3ccc(C4CC4)cc3)c(Cl)c3c2CCO3)[C@H](O)[C@@H](O)[C@@H]1O` [Enavogliflozin, (2S,3R,4R,5S,6R)-2-(7-chloro-6 (4-cyclopropylbenzyl)-2,3-dihydrobenzofuran-4-yl)-6-(hydroxymethyl)tetrahydro-2H-pyran-3,4,5-triol], in series [1] (all renal function groups), the “Urinary glucose excretion (UGE) after administration” value is on record as “increased”. Besides, in series [1] (patient group with 30≤eGFR<60), the “Change in eGFR” value was “eGFR reduction was confirmed”. The “Blood glucose-lowering effect compared to a placebo” value in series [2] is “statistically significant blood glucose-lowering effect”. For the same molecule, the Tmax in the series “Pharmacokinetics (Tmax)” is 1 to 2 h. Also, in series [3], the 5-minute dissolution rate result is recorded as “less than 40%” and the 30-minute dissolution rate result is recorded as “less than 80%”.
